The source of these data is article PMC5343914, “Phytochemical Analysis of Agrimonia pilosa Ledeb, Its Antioxidant Activity and Aldose Reductase Inhibitory Potential” (International Journal of Molecular Sciences, 2017).

Where two headings read alike, the source gives them in different places.

A short description of assay [1]: DPPH free radical scavenging capacity. Here is the method: The stable free radical was used to determine the free radical-scavenging activity of the extracts. Briefly, a 0.32 mM solution of DPPH in MeOH was prepared, and 180 µL of this solution was mixed with 30 µL of each sample at concentrations of 0.05–1.0 mg/mL in DMSO. After 20 min of incubation in the darkroom, the decrease in the absorbance of the solution was measured at 570 nm on a microplate reader (EL800 Universal Microplate reader, Bio-Tek instruments, Winooski, VT, USA). DPPH inhibitory activity was expressed as the percentage inhibition (%) of DPPH in the aforementioned assay system, and was calculated as [1 − (Asample − Ablank/Acontrol − Ablank)] × 100%, where Acontrol is the absorbance of DPPH solution (180 µL) with methanol (30 µL); Ablank is the absorbance of distilled water (180 µL) with methanol (30 µL); Asample is the absorbance of DPPH solution (180 µL) with sample solution (30 µL).
On the technique in general: Loss of DPPH colour is used to gauge radical scavenging.

Assay [2] has as its system sorbitol accumulation in rat lenses. Kind of assay: Lens culture and intracellular sorbitol measurement (ex vivo). To be noted: compound 5.0 μg/mL; for Inhibition (%) of sorbitol accumulation in rat lens: isolated rat lens ex vivo; for Sorbitol Content (mg)/Lens Wet Weight (g): isolated rat lens, 30 mM glucose medium, 6 d. On the procedure:
Lenses isolated from 10-week-old Sprague–Dawley rats using the registration number mentioned in the section of 4.5 were cultured for 6 d in TC-199 medium that contained 15% fetal bovine serum, 100 units/mL penicillin, and 0.1 mg/mL streptomycin, under sterile conditions and an atmosphere of 5% CO2 and 95% air at 37 °C. Samples were dissolved in DMSO. The lenses were divided into three groups and cultured in medium containing 30 mM glucose and RLAR-active compounds. Each lens was placed in a well containing 2.0 mL of medium. Sorbitol was determined by HPLC using the methods mentioned in the section of 4.7 after its derivatization by reaction with benzoic acid to a fluorescent compound [42].

Assay [3] deals with T1, rat lens aldose reductase (RLAR) (Rattus norvegicus, UniProt P07943).
T1 construct: The supernatant was collected and used as the RLAR; from tissue; host or cells: Sprague–Dawley rat lens homogenate, 10,000 x g supernatant
As to the kind of experiment: Determination of RLAR inhibition in vitro (NADPH decrease at 340 nm, DL-glyceraldehyde substrate).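 As to all read-outs here: crude enzyme from Sprague–Dawley rat lens homogenate supernatant, absorbance read over 3 min in pH 6.2 potassium phosphate buffer with 1.6 mM NADPH and 25 mM substrate.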 Type of assay: biochemical. On the set-up: inhibition: dose or concentration left out as unconfirmed. To be noted: for IC50: Experiments; for inhibition: Table 2, printed under head DPPH/Experiments.
Description: Crude RLAR was prepared as follows: lenses weighing 250–280 g were removed from Sprague–Dawley rats and frozen at −70 °C until use. […] Non-cataractous transparent lenses were pooled and a homogenate was prepared in 0.1 M phosphate-buffered saline (pH 6.2). RLAR homogenate was then centrifuged at 10,000× g for 20 min at 4 °C in a refrigerated centrifuge. The supernatant was collected and used as the RLAR. All procedures were carried out at 4 °C [37].
RLAR activity was assayed spectrophotometrically by measuring the decrease in the absorption of NADPH at 340 nm over a 3-min period using DL-glyceraldehyde as the substrate. Each 1.0 mL cuvette contained equal units of the enzyme, 0.10 M potassium phosphate buffer (pH 6.2), 1.6 mM NADPH, 25 mM DL-glyceraldehyde (the substrate), and an inhibitor or dimethyl sulfoxide (DMSO).

Assay [4] has as its target T1, rat lens aldose reductase (RLAR).
A short description of assay [5]: Offline DPPH HPLC assay of the n-BuOH fraction (peak area reduction). To be noted: n-BuOH fraction 20 mg/mL mixed with […] DPPH, 20 min, HPLC 254 nm. Here is the method:
The sample was analyzed using an Agilent Technologies modular model 1200 system with a vacuum degasser (G1322A), a quaternary pump (G1311A), an auto-sampler (G1329A), a thermo-statted column compartment (G1316A), and a variable wavelength detector (VWD, G1314D) system. The separation was achieved on an Eclipse XDB-phenyl column (150 mm × 4.6 mm, 3.5 μm) maintained at 30 °C. The elution solvents were 0.1% trifluoroacetic acid (A) and MeOH (B) with the following gradient: 20%–30% B (0–3 min), 30%–40% B (3–10 min), 40%–50% B (10–20 min), 50%–60% B […], 60%–100% B (25–35 min), 100%–100% B (35–38 min), 100%–20% B (38–40 min), and 20%–20% B (40–45 min). Injection volume was 10 µL (sample concentration: 1 mg/mL) and UV wavelength was 254 nm.
The offline DPPH HPLC assay was performed by modifying a previously-described protocol. Thirty microliters (20 mg/mL in MeOH) of the n-BuOH fraction from APE were mixed with 180 μL prepared DPPH solution (0.32 mM). The mixture was incubated in the dark for 20 min, then filtered through a 0.45-μm filter for HPLC analysis. The n-BuOH (20 mg/mL in MeOH) was used as a control. The extent of peak decrease is expressed as a quantitative reduction.

Assay [6] addresses T2, recombinant human aldose reductase (RHAR) (Homo sapiens, UniProt P15121).
T2 construct: purchased Wako Pure Chemical Industries (Osaka, Japan)
As to conditions: cited from earlier work; for Inhibition type (References): Table 3; for inhibition pattern against RHAR: ref Lee et al., Ha et al., Chethan et al. 31, 32, 33.

[7] abbreviates: literature value; read-out: RLAR IC50 (References); cited from earlier work.

By IC50 is commonly meant the point on the concentration scale where inhibition reaches its midpoint. As to `C[C@@H]1O[C@@H](Oc2c(-c3ccc(O)cc3)oc3cc(O)cc(O)c3c2=O)[C@H](O)[C@H](O)[C@H]1O` [Afzelin (AZ), afzelin], in assay [1], the “DPPH free radical scavenging activity (in words)” value was “no DPPH free radical scavenging activity” and the half-inhibitory concentration (IC50) was over 250 µM. For the same compound, in assay [2], the “Inhibition (%) of sorbitol accumulation in rat lens” value (shortened to “Inhibition (%) … in rat lens”) is recorded as 93.2 ± 8.67% and the “Sorbitol Content (mg)/Lens Wet Weight (g)” value (“Sorbitol Content” below) was found to be 0.10 ± 0.01 mg/g.

The inhibition is the change of the read-out against control, counted positive when it falls. Take `O=c1cc(-c2ccc(O)cc2)oc2cc(O)cc(O)c12` [Apigenin (AG), apigenin]: the IC50 in assay [3] was 3.2 ± 0.21 µM; in assay [1], 156.3 ± 1.21 µM; in assay [4] (read-out: RLAR IC50 (References); literature value; cited from earlier work), 2.2 µM. Moreover, in assay [3], the inhibition is 81.8 ± 1.2%.

On to `O=c1cc(-c2ccc(O)cc2)oc2cc(O[C@@H]3O[C@H](CO)[C@@H](O)[C@H](O)[C@H]3O)cc(O)c12` [Apigenin-7-O-glucoside (AGC), apigenin-7-O-glucoside], for which, in assay [3], the half-maximal inhibitory concentration (IC50) turned out to be 4.3 ± 0.14 µM and the inhibition is 40.2 ± 0.56%. In assay [1], the “DPPH free radical scavenging activity (in words)” value is on record as “almost no DPPH free radical scavenging activity” and the half-maximal inhibitory concentration (IC50) was over 250 µM. Further, in assay [5], the “peak area reduction (PAR)” value was “lower than 20.0%”. In assay [4] (setting [7]), the concentration for half-maximal inhibition (IC50) is 23 µM.

For the compound `O=C(O)[C@H]1O[C@@H](Oc2cc(O)c3c(=O)cc(-c4ccc(O)cc4)oc3c2)[C@H](O)[C@@H](O)[C@@H]1O` [Apigenin-7-O-glucuronide (AGN), apigenin-7-O-glucuronide], in assay [3], the “RLAR inhibitory activity (in words)” value is “inactive”, the half-inhibitory concentration (IC50) was over 30 µM and the inhibition is under 0%. In addition, in assay [1], the “DPPH free radical scavenging activity (in words)” value is “almost no DPPH free radical scavenging activity” and the 50% inhibitory concentration (IC50) was over 250 µM. Besides, in assay [5], the “peak area reduction (PAR)” value was “lower than 20.0%”.

In the case of `O=c1c(O[C@@H]2O[C@H](CO)[C@@H](O)[C@H](O)[C@H]2O)c(-c2ccc(O)cc2)oc2cc(O)cc(O)c12` [Astragalin (AS), astragalin], in assay [3], inhibition was half-maximal at 5.1 ± 0.89 µM (IC50) and the inhibition turned out to be 53.3 ± 1.14%. Moreover, in assay [1], the “DPPH free radical scavenging activity (in words)” value was “no DPPH free radical scavenging activity” and the half-inhibitory concentration (IC50) was over 250 µM. In addition, the IC50 in assay [4] (setting [7]) was over 30 µM.

Consider `Oc1cc(O)c2c(c1)OC(c1ccc(O)c(O)c1)C(O)C2` (centres unmarked) [Catechin (CT), catechin], for which the results for the IC50 in assay [3], in assay [1] and in assay [4] (setting [7]) were over 30 µM, 106.7 ± 0.43 µM and over 30 µM, respectively. In assay [3], this compound displayed an inhibition of 7.2 ± 1.02%.

Consider `O=c1c(O[C@@H]2O[C@H](CO)[C@H](O)[C@H](O)[C@H]2O)c(-c2ccc(O)c(O)c2)oc2cc(O)cc(O)c12` [Hyperin (HP), hyperin], for which the IC50 in assay [3] was 4.1 ± 0.32 µM; in assay [1], 73.3 ± 0.23 µM; in assay [4] (setting [7]), 3 µM. This compound also yielded an inhibition in assay [3] of 90.8 ± 0.96%.

With `O=c1c(O[C@@H]2O[C@H](CO)[C@@H](O)[C@H](O)[C@H]2O)c(-c2ccc(O)c(O)c2)oc2cc(O)cc(O)c12` [Isoquercitrin (IQC), Isoquercitrin], the values for the IC50 in assay [3], in assay [1] and in assay [4] (setting [7]) were 5.1 ± 0.88 µM, 65.9 ± 0.46 µM and 4.5 µM, respectively. This compound also gave an inhibition in assay [3] of 41 ± 1.07%.

Consider `O=c1c(O)c(-c2ccc(O)cc2)oc2cc(O)cc(O)c12` [Kaempferol (KP), kaempferol], for which the results for the half-maximal inhibitory concentration (IC50) in assay [3], in assay [1] and in assay [4] (setting [7]) were 15.2 ± 1.32 µM, 91.6 ± 0.68 µM and 10 µM, respectively. This compound displayed an inhibition in assay [3] of 11.8 ± 0.81%.

Turning to `O=C1O[C@H]([C@@H](O)CO)C(O)=C1O` [L-Ascorbic acid, L-ascorbic acid], the IC50 in assay [1] is 147.3 ± 0.43 µM. Also, in assay [1] (Table 1, concentration not in table, text b9: crude extract 7.1 μg/mL), the “Inhibition (%) DPPH” value is recorded as 81.0 ± 0.01%.

In assay [3], `O=c1cc(-c2ccc(O)c(O)c2)oc2cc(O)cc(O)c12` [Luteolin (LT), luteolin] registered an inhibition of 80.2 ± 0.9%. In assay [1], this compound gave an IC50 of 88.2 ± 0.52 µM. Further, in assay [2], the “Inhibition (%) … in rat lens” value amounted to 91.8 ± 7.91% and the “Sorbitol Content” value is 0.12 ± 0.01 mg/g. For the same compound, in assay [6], the “Inhibition type (References)” value was “Mixed type [30]” and the “inhibition pattern against RHAR” value was “mixed-type”.

In the case of `O=c1cc(-c2ccc(O)c(O)c2)oc2cc(O[C@@H]3O[C@H](CO)[C@@H](O)[C@H](O)[C@H]3O)cc(O)c12` [Luteolin-7-O-glucoside (LGC), luteolin-7-O-glucoside], the IC50 in assay [3] was 8.1 ± 0.72 µM; in assay [1] it was 71.5 ± 0.29 µM; in assay [4] (setting [7]), 7.5 µM. Besides, in assay [3], the inhibition worked out at 46.9 ± 0.95%. Further, the “peak area reduction (PAR)” value in assay [5] is recorded as “lower than 20.0%”.

As for `O=c1c(O)c(-c2ccc(O)c(O)c2)oc2cc(O)cc(O)c12` [Quercetin (QC), quercetin], 10 µg/mL produced 74.1 ± 0.85% inhibition in assay [3]. Also, it took 70.4 ± 0.15 µM to reach half-maximal inhibition in assay [1] (IC50). In assay [2], the “Inhibition (%) … in rat lens” value is 85.7 ± 8.32% and the “Sorbitol Content” value is 0.21 ± 0.02 mg/g. In addition, in assay [6], the “Inhibition type (References)” value is “Noncompetitive [31]” and the “inhibition pattern against RHAR” value is recorded as “noncompetitive”.

For the compound `C[C@@H]1O[C@@H](Oc2c(-c3ccc(O)c(O)c3)oc3cc(O)cc(O)c3c2=O)[C@H](O)[C@H](O)[C@H]1O` [Quercitrin (QU), quercitrin], in assay [3], at 10 µg/mL the inhibition was 97.4 ± 1.38% and the 50% inhibitory concentration (IC50) came out at 0.2 ± 0.02 µM. Further, the “RLAR potency relative to positive control TMG (times higher)” value in assay [3] (IC50 0.2 μM vs TMG 0.5 μM) turned out to be 2.5 times. For the same compound, the half-inhibitory concentration (IC50) in assay [1] is 77.9 ± 0.27 µM. Besides, in assay [2], the “Inhibition (%) … in rat lens” value is listed as 76.9 ± 5.32% and the “Sorbitol Content” value stood at 0.34 ± 0.02 mg/g. For the same compound, in assay [6], the “Inhibition type (References)” value was “Uncompetitive [29]” and the “inhibition pattern against RHAR” value was “uncompetitive”.

In assay [3], `C[C@@H]1O[C@@H](OC[C@H]2O[C@@H](Oc3c(-c4ccc(O)c(O)c4)oc4cc(O)cc(O)c4c3=O)[C@H](O)[C@@H](O)[C@@H]2O)[C@H](O)[C@H](O)[C@H]1O` [Rutin (RT), rutin] gave a 50% inhibitory concentration (IC50) of 9.5 ± 0.75 µM and an inhibition of 31.7 ± 0.65%. This compound registered a 50% inhibitory concentration (IC50) in assay [1] of 66.8 ± 0.34 µM. In assay [5], the “peak area reduction (PAR)” value is “lower than 20.0%”.

`O=C(O)CC1(CC(=O)O)CCCC1` [TMG, tetramethylene glutaric acid]: the figures for the concentration for half-maximal inhibition (IC50) in assay [3] and in assay [4] (setting [7]) were 0.5 ± 0.05 µM and 1 µM, respectively. Also, in assay [3] (Table 1, concentration not in table, text b9: crude extract 10.0 μg/mL, EtOAc, n-BuOH fractions and TMG 1.0 μg/mL), the “Inhibition (%) RLAR” value is listed as 99.7 ± 0.11%.

As to `O=c1cc(-c2ccc(O)cc2)oc2c([C@@H]3O[C@H](CO)[C@@H](O)[C@H](O)[C@H]3O)c(O)cc(O)c12` [Vitexin (VT), vitexin], in assay [3], the IC50 was over 30 µM and the inhibition is 12.2 ± 0.95%. In addition, in assay [1], the “DPPH free radical scavenging activity (in words)” value is reported as “no DPPH free radical scavenging activity” and the half-inhibitory concentration (IC50) was over 250 µM. In addition, in assay [4] (setting [7]), the IC50 is over 30 µM.
